Experimental data reported in ChEMBL document CHEMBL1124152, “Conformationally constrained renin inhibitory peptides: gamma-lactam-bridged dipeptide isostere as conformational restriction” (J Med Chem, 1988).

Experiments:
Renin = target: T1, Renin (Homo sapiens, UniProt P00797); assay: Inhibitory activity against human plasma renin; format: cell-free
T1 sequence (P00797 whole entry): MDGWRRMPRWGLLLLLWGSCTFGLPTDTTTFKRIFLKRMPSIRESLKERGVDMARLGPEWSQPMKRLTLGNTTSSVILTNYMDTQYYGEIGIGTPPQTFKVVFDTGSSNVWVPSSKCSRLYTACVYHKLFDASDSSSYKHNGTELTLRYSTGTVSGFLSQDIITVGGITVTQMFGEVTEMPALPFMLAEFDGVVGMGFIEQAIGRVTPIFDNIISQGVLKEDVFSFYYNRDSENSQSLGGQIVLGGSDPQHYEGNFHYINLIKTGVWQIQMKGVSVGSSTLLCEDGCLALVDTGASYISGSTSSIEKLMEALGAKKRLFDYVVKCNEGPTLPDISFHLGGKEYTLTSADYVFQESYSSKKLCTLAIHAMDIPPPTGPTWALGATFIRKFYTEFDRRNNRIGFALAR

Renin (Homo sapiens) = target: T2, Renin (Homo sapiens) (UniProt P00797); assay: Inhibitory activity against human plasma renin at 10e-5 M; format: cell-free
T2 sequence (whole entry): T1 sequence (P00797 whole entry)

Row | IC50 (Renin) [nM] | inhibition (Renin (Homo sapiens)) [%] | SMILES
1 | 26 |  | CCCC[C@H](NC(=O)[C@H](Cc1ccccc1)NC(=O)OCc1ccccc1)C(=O)N[C@@H](CC(C)C)[C@@H](O)C[C@H](C(=O)N[C@H](C(=O)NCc1ccccn1)[C@H](C)CC)C(C)C
2 | 6.5 |  | CCCC[C@@H](C(=O)N[C@@H](CC(C)C)[C@@H](O)C[C@H](C(=O)N[C@H](C(=O)NCc1ccccn1)[C@H](C)CC)C(C)C)N1CCC(Cc2ccccc2)(NC(=O)OCc2ccccc2)C1=O (stereo in doubt; form 1)
3 |  | 46 | CCCC[C@@H](C(=O)N[C@@H](CC(C)C)[C@@H](O)CC(=O)N[C@H](C(=O)NCc1ccccn1)[C@H](C)CC)N1CCC(Cc2ccccc2)C1=O (stereo in doubt; form 1)
4 | 14 |  | CCCC[C@@H](C(=O)N[C@@H](CC(C)C)[C@@H](O)C[C@H](C(=O)N[C@H](C(=O)NCc1ccccn1)[C@@H](C)CC)C(C)C)N1CCC(Cc2ccccc2)C1=O (stereo in doubt; form 2)
5 | 120 |  | CCCC[C@H](NC(=O)CCc1ccccc1)C(=O)N[C@@H](CC(C)C)[C@@H](O)C[C@H](C(=O)N[C@H](C(=O)NCc1ccccn1)[C@H](C)CC)C(C)C
6 | 350 |  | CCCC[C@H](NC(=O)CCc1ccccc1)C(=O)N[C@@H](CC(C)C)[C@@H](O)CC(=O)N[C@H](C(=O)NCc1ccccn1)[C@H](C)CC
7 |  | 46 | CCCC[C@@H](C(=O)N[C@@H](CC(C)C)[C@@H](O)CC(=O)N[C@H](C(=O)NCc1ccccn1)[C@H](C)CC)N1CCC(Cc2ccccc2)C1=O (stereo in doubt; form 2)
8 | 27 |  | CCCC[C@@H](C(=O)N[C@@H](CC(C)C)[C@@H](O)C[C@H](C(=O)N[C@H](C(=O)NCc1ccccn1)[C@@H](C)CC)C(C)C)N1CCC(Cc2ccccc2)C1=O (stereo in doubt; form 1)
9 | 6.5 |  | CCCC[C@@H](C(=O)N[C@@H](CC(C)C)[C@@H](O)C[C@H](C(=O)N[C@H](C(=O)NCc1ccccn1)[C@H](C)CC)C(C)C)N1CCC(Cc2ccccc2)(NC(=O)OCc2ccccc2)C1=O (stereo in doubt; form 2)
